This passage reports MIC and ED50 results from patent US4421912A, “Cephalosporin derivatives” (Takeda Chemical Industries, Ltd., priority 1973, dated 1983).

Converted amounts (≈) assume the structure as drawn. Like-named read-outs stand apart in the source and are kept apart here.

One experiment relates to E. coli 0-111. Put plainly: Antibacterial spectra, agar dilution method. Type of experiment: cell-based.
From the text: (§1) (mcg/ml., agar dilution method)
as §1
(§2) (mcg/ml, agar dilution method)
(§3) (mcg./ml., agar dilution method)
Background: In agar dilution the substance is mixed into plates at graded concentrations.

The subject of another experiment is E. coli NIHJ JC-2. Kind of experiment: Antibacterial spectra, agar dilution method. It counts as cell-based. The note with it: Escherichia coli.
From the text: as §1, §1, §2, §3

For a further experiment, the system named is S. aureus 1840. Kind of experiment: Antibacterial spectra, agar dilution method. Type of experiment: cell-based.
From the text: as §1, §1, §2, §3

A further experiment concerns S. aureus 209P. Put plainly: Antibacterial spectra, agar dilution method. It counts as cell-based. The note with it: Staphylococcus aureus, 209P.
From the text: as §1, §1, §2, §3

A further experiment deals with E. coli T-7. Put plainly: Antibacterial spectra, agar dilution method. Type of experiment: cell-based. The following applies: Escherichia coli. The text has this: (§4) |(mcg./ml., agar dilution method)
A further experiment deals with P. vulgaris IFO 3988. Kind of experiment: Antibacterial spectra, agar dilution method. It counts as cell-based. The following applies: Proteus vulgaris.
From the text: as §4

The test system of a further experiment is K. pneumoniae DT. Put plainly: Antibacterial spectra, agar dilution method. The following applies: Klebsiella pneumoniae. It counts as cell-based.
Another experiment deals with P. morganii Eb53. Put plainly: Antibacterial spectra, agar dilution method. Type of experiment: cell-based. The note with it: Morganella morganii.
From the text: as §2, §3

For another experiment, the system named is Escherichia coli 0111. Put plainly: Protective Effect on Infected Mice. The note with it: Escherichia coli, 0111, sc, 168 h, male ICR/SLC mice, i.p. E. coli 0111, single subcutaneous dose immediately after challenge, 7 days. Type of experiment: in vivo. The text has this:
Protective Effect (ED50 * , mg/kg) on Infected Mice
*Test animals: male mice (ICR/SLC) 5 mice per group per single dose
Infection: intraperitoneally with Escherichia coli 0111
Administration: a single subcutaneous dose immediately after challenge
Observation period: 7 days
*Test animals: male mice (ICR/SLC) 5 mice per group single dose

Another experiment has as its system P. vulgaris Eb-58. Kind of experiment: Antibacterial spectra, agar dilution method. It counts as cell-based. The note with it: Proteus vulgaris, EB58, tables in Examples 13 and 16.
From the text: as §1, §2

Setting [1] is: Escherichia coli, 0111, E. coli 0-111, Table 11.
The mark [2] stands for this setting: NIHJJC2, read-out: Antibacterial spectra, E. coli NIHJ JC-2, Table 11.
The mark [3] stands for this setting: Staphylococcus aureus, S. aureus 1840, Table 11, read-out: Antibacterial spectra.
[4] abbreviates: read-out: Antibacterial spectra, S. aureus 209P, Table 11.
[5] abbreviates: T7, E. coli T-7, agar dilution method, Table 11, read-out: Antibacterial spectra.
The mark [6] stands for this setting: IFO3988, P. vulgaris IFO 3988, agar dilution method, Table 11, read-out: Antibacterial spectra.
Where [7] appears, read: EB53, read-out: Antibacterial spectra.
Where [8] appears, read: Staphylococcus aureus, 1840, read-out: Antibacterial spectra, S. aureus 1840, Table 11.
The mark [9] stands for this setting: P. morganii Eb53, agar dilution method, Table 11, read-out: Antibacterial spectra.
The mark [10] stands for this setting: T7, read-out: Antibacterial spectra.

One may read the ED50 as the midpoint of the dose-response relation. With `Nc1nc(CC(=O)NC2C(=O)N3C(C(=O)O)=C(CSc4nnc(CC(=O)O)s4)CSC23)cs1` (centres unmarked) [Compound 19, disodium 7-[2-(2-aminothiazol-4-yl)acetamido]-3-(2-carboxymethyl-1,3,4-thiadiazol-5-yl)thiomethyl-3-cephem-4-carboxylate], the MIC was at most 0.2 µg/mL in the experiment with E. coli 0-111 (setting [1]); 0.78 µg/mL with E. coli NIHJ JC-2 (setting [2]); 3.13 µg/mL in the experiment with S. aureus 1840 (setting [3]); 0.78 µg/mL in the experiment with S. aureus 209P (setting [4]); 25 µg/mL in the experiment with E. coli T-7 (setting [5]); at most 0.2 µg/mL in the experiment on P. vulgaris IFO 3988 (setting [6]). The MIC is at most 0.2 µg/mL with K. pneumoniae DT (Table 11) and 0.78 µg/mL in the experiment on P. morganii Eb53 (setting [7]). In the experiment on Escherichia coli 0111 (Table 12, read-out: Protective Effect (ED50) on Infected Mice), the ED50 is under 0.625 mg/kg.

In the case of `Nc1nc(CC(=O)NC2C(=O)N3C(C(=O)O)=C(CSc4nnc(SCC(=O)O)s4)CSC23)cs1` (centres unmarked) [Compound 15], the MIC against E. coli 0-111 (setting [1]) is at most 0.2 µg/mL; with E. coli NIHJ JC-2 (setting [2]), 0.78 µg/mL (≈ 1.39 µM); with S. aureus 1840 (setting [8]) it was 1.56 µg/mL (≈ 2.78 µM); in the experiment with S. aureus 209P (setting [4]), 0.78 µg/mL (≈ 1.39 µM); with E. coli T-7 (setting [5]), 25 µg/mL (≈ 44.6 µM); in the experiment on P. vulgaris IFO 3988 (setting [6]) it was at most 0.2 µg/mL. Moreover, the results for the MIC against K. pneumoniae DT (Table 11) and in the experiment with P. morganii Eb53 (setting [9]) were at most 0.2 µg/mL and 3.13 µg/mL (≈ 5.58 µM), respectively. Also, in the experiment with Escherichia coli 0111 (Table 13, read-out: ED50), the ED50 is under 0.625 mg/kg.

As for `Nc1nc(CC(=O)NC2C(=O)N3C(C(=O)O)=C(CSc4nncs4)CSC23)cs1` (centres unmarked) [Example 13, sodium 7-[2-(2-aminothiazol-4-yl)-acetamido]-3-(1,3,4-thiadiazol-2-yl)thiomethyl-3-cephem-4-carboxylate], the MIC with E. coli 0-111 (Escherichia coli, 0111, E. coli 0-111, tables in the Examples) was under 0.78 µg/mL; in the experiment on S. aureus 1840 (Staphylococcus aureus, 1840, read-out: Antibacterial spectra, S. aureus 1840, tables in the Examples), under 0.78 µg/mL; in the experiment on S. aureus 209P (read-out: Antibacterial spectra, S. aureus 209P, tables in the Examples), under 0.78 µg/mL; with K. pneumoniae DT (tables in the Examples), under 0.78 µg/mL; in the experiment with P. vulgaris Eb-58 it was under 0.78 µg/mL. In addition, the ED50 in the experiment on Escherichia coli 0111 (Table 14, read-out: ED50) is 2.38 mg/kg.

On to `Cn1c(N)nnc1SCC1=C(C(=O)O)N2C(=O)C(NC(=O)Cc3csc(N)n3)C2SC1` (centres unmarked) [Compound 31], for which the MIC was at most 0.1 µg/mL with E. coli 0-111 (setting [1]); 0.2 µg/mL (≈ 0.414 µM) in the experiment on E. coli NIHJ JC-2 (setting [2]); 1.56 µg/mL (≈ 3.23 µM) in the experiment on S. aureus 1840 (setting [8]); 0.78 µg/mL (≈ 1.62 µM) in the experiment on S. aureus 209P (setting [4]); 3.13 µg/mL (≈ 6.49 µM) in the experiment with E. coli T-7 (setting [5]); 0.2 µg/mL (≈ 0.414 µM) in the experiment with P. vulgaris IFO 3988 (setting [6]). Moreover, the MIC is at most 0.1 µg/mL with K. pneumoniae DT (Table 11) and 1.56 µg/mL (≈ 3.23 µM) in the experiment with P. morganii Eb53 (setting [7]).

For the molecule `CN(C)CC(=O)Nc1nnc(SCC2=C(C(=O)O)N3C(=O)C(NC(=O)Cc4csc(N)n4)C3SC2)s1` (centres unmarked) [Compound 7], the MIC with E. coli 0-111 (setting [1]) is at most 0.2 µg/mL; in the experiment with E. coli NIHJ JC-2 (setting [2]), 0.78 µg/mL (≈ 1.37 µM); with S. aureus 1840 (setting [3]) it was 3.13 µg/mL (≈ 5.48 µM); in the experiment on S. aureus 209P (setting [4]), 0.78 µg/mL (≈ 1.37 µM); with E. coli T-7 (setting [5]), 25 µg/mL (≈ 43.8 µM); in the experiment on P. vulgaris IFO 3988 (setting [6]), 0.39 µg/mL (≈ 0.683 µM). The figures for the MIC against K. pneumoniae DT (Table 11) and in the experiment with P. morganii Eb53 (setting [7]) were at most 0.2 µg/mL and 12.5 µg/mL (≈ 21.9 µM), respectively.

Take `CC(=O)CSc1nnc(SCC2=C(C(=O)O)N3C(=O)C(NC(=O)Cc4csc(N)n4)C3SC2)s1` (centres unmarked) [Compound 23]: the MIC in the experiment with E. coli 0-111 (setting [1]) is 0.39 µg/mL (≈ 0.698 µM); in the experiment on E. coli NIHJ JC-2 (NIHJJC2, E. coli NIHJ JC-2, Table 11, read-out: Antibacterial spectra), 1.56 µg/mL (≈ 2.79 µM); in the experiment on S. aureus 1840 (setting [8]), 0.78 µg/mL (≈ 1.4 µM); with S. aureus 209P (setting [4]) it was at most 0.2 µg/mL; with E. coli T-7 (setting [5]), 25 µg/mL (≈ 44.7 µM); in the experiment with P. vulgaris IFO 3988 (setting [6]), 0.39 µg/mL (≈ 0.698 µM). In addition, the values for the MIC against K. pneumoniae DT (Table 11) and in the experiment on P. morganii Eb53 (setting [9]) were at most 0.2 µg/mL and 3.13 µg/mL (≈ 5.6 µM), respectively.

With `CN(C)C(=O)Cc1nnc(SCC2=C(C(=O)[O-])N3C(=O)C(NC(=O)Cc4csc(N)n4)[C@H]3SC2)s1.[Na+]` (some centres unmarked) [Compound 8, sodium 7-[2-(2-aminothiazol-4-yl)acetamido]-3-[2-(N,N-dimethylcarbamoylmethyl)-1,3,4-thiadiazol-5-yl]thiomethyl-3-cephem-4-carboxylate], the MIC is at most 0.2 µg/mL with E. coli 0-111 (setting [1]); 0.78 µg/mL in the experiment on E. coli NIHJ JC-2 (setting [2]); 0.78 µg/mL with S. aureus 1840 (setting [8]); 0.39 µg/mL in the experiment on S. aureus 209P (setting [4]); 12.5 µg/mL in the experiment with E. coli T-7 (setting [10]); 0.39 µg/mL in the experiment on P. vulgaris IFO 3988 (IFO3988, read-out: Antibacterial spectra). The values for the MIC against K. pneumoniae DT (Table 11) and in the experiment on P. morganii Eb53 (setting [7]) were at most 0.2 µg/mL and under 0.2 µg/mL, respectively.

As for `NC(=O)CSc1nnc(SCC2=C(C(=O)[O-])N3C(=O)C(NC(=O)Cc4csc(N)n4)[C@H]3SC2)s1.[Na+]` (some centres unmarked) [Compound 16, sodium 7-[2-(2-aminothiazol-4-yl)acetamido]-3-(2-carbamoylmethylthio-1,3,4-thiadiazol-5-yl)thiomethyl-3-cephem-4-carboxylate], the MIC in the experiment on E. coli 0-111 (setting [1]) was at most 0.2 µg/mL; in the experiment with E. coli NIHJ JC-2 (setting [2]), 0.39 µg/mL; with S. aureus 1840 (setting [8]), 0.78 µg/mL; in the experiment on S. aureus 209P (setting [4]), at most 0.2 µg/mL; in the experiment on E. coli T-7 (setting [10]), 12.5 µg/mL; in the experiment with P. vulgaris IFO 3988 (setting [6]), at most 0.2 µg/mL. Also, the MIC is at most 0.2 µg/mL against K. pneumoniae DT (Table 11) and 1.56 µg/mL in the experiment on P. morganii Eb53 (setting [7]). Moreover, the ED50 with Escherichia coli 0111 (Table 13, read-out: ED50) was under 0.625 mg/kg.
